{"source": "patent US6479435B1", "about": "“Diaryl ethers and processes for their preparation and herbicidal and desiccant compositions containing them” (ISK Americas Incorporated, priority 1997, dated 2002)", "format_in_all_cases": "in vivo", "key": {"[1]": {"system": "field corn (Zea mays L., var. Dekalb 535, CORN)", "experiment": "Post-emerge greenhouse test, crop damage rating", "settings": "14 days after application", "in_short": "(§1)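 Scores use a 0 (no damage) to 100 (complete kill) scale, taken 14 days after a foliar spray. Acetone solutions with 0.25% v/v non-ionic surfactant were applied by track sprayer at 187 l/ha and 63-1000 g ai/ha to bottom-watered 2-3 leaf plants.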"}, "[2]": {"system": "upland rice (Oryza sp., var.Tebonnet, RICE)", "experiment": "Post-emerge greenhouse test, crop damage rating", "settings": "14 days after application", "in_short": "as §1"}, "[3]": {"system": "sicklepod (Cassia obtusifolia, CASOB)", "experiment": "Pre-emerge greenhouse herbicide test, phytotoxicity rating", "settings": "14 days after application, rating scale 0-100", "in_short": "(§2)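 Visual 0–100 injury rating (100 = all plants dead) taken 14 days after treatment. Rates of 125–1000 g ai/ha in acetone, 187 l/ha, were sprayed onto soil one day post-sowing; pots were surface-watered to incorporate, then bottom-watered.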"}, "[4]": {"system": "common ragweed (Ambrosia artemisiifolia L., AMBEL)", "experiment": "Pre-emerge greenhouse herbicide test, phytotoxicity rating", "settings": "14 days after application, rating scale 0-100", "in_short": "as §2"}, "[5]": {"system": "large crabgrass (Digitaria sanguinalis, DIGSA)", "experiment": "Pre-emerge greenhouse herbicide test, phytotoxicity rating", "settings": "14 days after application, rating scale 0-100", "in_short": "as §2"}, "[6]": {"system": "Johnsongrass (Sorghum halepense, SORHA)", "experiment": "Pre-emerge greenhouse herbicide test, phytotoxicity rating", "settings": "14 days after application, rating scale 0-100", "in_short": "as §2"}, "[7]": {"system": "lambsquarters (Chenopodium album, CHEAL)", "experiment": "Pre-emerge greenhouse herbicide test, phytotoxicity rating", "settings": "14 days after application, rating scale 0-100", "in_short": "as §2"}, "[8]": {"system": "barnyardgrass (Echinochloa crusgalli, ECHCG)", "experiment": "Pre-emerge greenhouse herbicide test, phytotoxicity rating", "settings": "14 days after application, rating scale 0-100", "in_short": "as §2"}, "[9]": {"system": "velvetleaf (Abutilon theophrasti, ABUTH)", "experiment": "Pre-emerge greenhouse herbicide test, phytotoxicity rating", "settings": "14 days after application, rating scale 0-100", "in_short": "as §2"}, "[10]": {"system": "redroot pigweed (Amaranthus retroflexus, AMARE)", "experiment": "Pre-emerge greenhouse herbicide test, phytotoxicity rating", "settings": "14 days after application, rating scale 0-100", "in_short": "as §2"}, "[11]": {"system": "ivyleaf morningglory (Ipomoea hederacea, IPOHE)", "experiment": "Pre-emerge greenhouse herbicide test, phytotoxicity rating", "settings": "14 days after application, rating scale 0-100", "in_short": "as §2"}, "[12]": {"system": "green foxtail (Setaria viridis, SETVI)", "experiment": "Pre-emerge greenhouse herbicide test, phytotoxicity rating", "settings": "14 days after application, rating scale 0-100", "in_short": "as §2"}, "[13]": {"system": "field corn (Zea mays L., var. Dekalb 535, CORN)", "experiment": "Pre-emerge greenhouse test, crop damage rating", "settings": "14 days after application, rating scale 0-100", "in_short": "as §2"}, "[14]": {"system": "upland rice (Oryza sp., var.Tebonnet, RICE)", "experiment": "Pre-emerge greenhouse test, crop damage rating", "settings": "14 days after application, rating scale 0-100", "in_short": "as §2"}, "[15]": {"system": "soybean (Glycine max L., var. Pella 86, SOY)", "experiment": "Pre-emerge greenhouse test, crop damage rating", "parameters": "key to SOY crop damage rating: 0 = no damage, 100 = complete death of all plants", "settings": "14 days after application, rating scale 0-100", "in_short": "as §2"}, "[16]": {"system": "common ragweed (Ambrosia artemisiifolia L., AMBEL)", "experiment": "Post-emerge greenhouse herbicide test, phytotoxicity rating", "settings": "14 days after application", "in_short": "as §1"}, "[17]": {"system": "soybean (Glycine max L., var. Pella 86, SOY)", "experiment": "Post-emerge greenhouse test, crop damage rating", "parameters": "key to crop damage rating SOY: 0-100 scale: 0 = no damage, 100 = complete death of all plants", "settings": "14 days after application", "in_short": "as §1"}, "[18]": {"system": "sicklepod (Cassia obtusifolia, CASOB)", "experiment": "Post-emerge greenhouse herbicide test, phytotoxicity rating", "settings": "14 days after application", "in_short": "as §1"}, "[19]": {"system": "large crabgrass (Digitaria sanguinalis, DIGSA)", "experiment": "Post-emerge greenhouse herbicide test, phytotoxicity rating", "settings": "14 days after application", "in_short": "as §1"}, "[20]": {"system": "Johnsongrass (Sorghum halepense, SORHA)", "experiment": "Post-emerge greenhouse herbicide test, phytotoxicity rating", "settings": "14 days after application", "in_short": "as §1"}, "[21]": {"system": "lambsquarters (Chenopodium album, CHEAL)", "experiment": "Post-emerge greenhouse herbicide test, phytotoxicity rating", "settings": "14 days after application", "in_short": "as §1"}, "[22]": {"system": "barnyardgrass (Echinochloa crusgalli, ECHCG)", "experiment": "Post-emerge greenhouse herbicide test, phytotoxicity rating", "settings": "14 days after application", "in_short": "as §1"}, "[23]": {"system": "velvetleaf (Abutilon theophrasti, ABUTH)", "experiment": "Post-emerge greenhouse herbicide test, phytotoxicity rating", "settings": "14 days after application", "in_short": "as §1"}, "[24]": {"system": "redroot pigweed (Amaranthus retroflexus, AMARE)", "experiment": "Post-emerge greenhouse herbicide test, phytotoxicity rating", "settings": "14 days after application", "in_short": "as §1"}, "[25]": {"system": "ivyleaf morningglory (Ipomoea hederacea, IPOHE)", "experiment": "Post-emerge greenhouse herbicide test, phytotoxicity rating", "settings": "14 days after application", "in_short": "as §1"}, "[26]": {"system": "green foxtail (Setaria viridis, SETVI)", "experiment": "Post-emerge greenhouse herbicide test, phytotoxicity rating", "settings": "14 days after application", "in_short": "as §1"}}}
{"smiles": "CC(=O)Nc1ccc(Oc2cc(-n3c(=O)n4n(c3=S)CCCC4)c(F)cc2Cl)c(C(F)(F)F)c1", "note": "[Compound 8-16]", "values": [{"measurement": "CORN crop damage rating (0-100)", "setting": "[1]; 63 g al/ha", "value": 0}, {"measurement": "crop damage rating CORN", "setting": "[1]; rate 500 g ai/ha, scale 0-100", "value": 5}, {"measurement": "RICE crop damage rating (0-100)", "setting": "[2]; 63 g al/ha", "value": 0}, {"measurement": "crop damage rating RICE", "setting": "[2]; rate 500 g ai/ha, scale 0-100", "value": 0}, {"measurement": "phytotoxicity rating CASOB", "setting": "[3]; 125 g ai/ha", "value": 0}, {"measurement": "CASOB phytotoxicity rating", "setting": "[3]; Rate 500 g al/ha", "value": 0}, {"measurement": "phytotoxicity rating AMBEL", "setting": "[4]; 125 g ai/ha", "value": 40}, {"measurement": "AMBEL phytotoxicity rating", "setting": "[4]; Rate 500 g al/ha", "value": 100}, {"measurement": "phytotoxicity rating DIGSA", "setting": "[5]; 125 g ai/ha", "value": 0}, {"measurement": "DIGSA phytotoxicity rating", "setting": "[5]; Rate 500 g al/ha", "value": 30}, {"measurement": "phytotoxicity rating SORHA", "setting": "[6]; 125 g ai/ha", "value": 0}, {"measurement": "SORHA phytotoxicity rating", "setting": "[6]; Rate 500 g al/ha", "value": 10}, {"measurement": "phytotoxicity rating CHEAL", "setting": "[7]; 125 g ai/ha", "value": 100}, {"measurement": "CHEAL phytotoxicity rating", "setting": "[7]; Rate 500 g al/ha", "value": 100}, {"measurement": "phytotoxicity rating ECHCG", "setting": "[8]; 125 g ai/ha", "value": 0}, {"measurement": "ECHCG phytotoxicity rating", "setting": "[8]; Rate 500 g al/ha", "value": 0}, {"measurement": "phytotoxicity rating ABUTH", "setting": "[9]; 125 g ai/ha", "value": 90}, {"measurement": "ABUTH phytotoxicity rating", "setting": "[9]; Rate 500 g al/ha", "value": 100}, {"measurement": "phytotoxicity rating AMARE", "setting": "[10]; 125 g ai/ha", "value": 80}, {"measurement": "AMARE phytotoxicity rating", "setting": "[10]; Rate 500 g al/ha", "value": 90}, {"measurement": "phytotoxicity rating IPOHE", "setting": "[11]; 125 g ai/ha", "value": 0}, {"measurement": "IPOHE phytotoxicity rating", "setting": "[11]; Rate 500 g al/ha", "value": 0}, {"measurement": "phytotoxicity rating SETVI", "setting": "[12]; 125 g ai/ha", "value": 0}, {"measurement": "SETVI phytotoxicity rating", "setting": "[12]; Rate 500 g al/ha", "value": 70}, {"measurement": "crop damage rating CORN", "setting": "[13]; 125 g ai/ha", "value": 0}, {"measurement": "CORN crop damage rating", "setting": "[13]; Rate 500 g al/ha", "value": 0}, {"measurement": "crop damage rating RICE", "setting": "[14]; 125 g ai/ha", "value": 0}, {"measurement": "RICE crop damage rating", "setting": "[14]; Rate 500 g al/ha", "value": 0}, {"measurement": "crop damage rating SOY", "setting": "[15]; 125 g ai/ha", "value": 0}, {"measurement": "SOY crop damage rating", "setting": "[15]; Rate 500 g al/ha", "value": 10}, {"measurement": "AMBEL phytotoxicity rating (0-100)", "setting": "[16]; 63 g al/ha", "value": 40}, {"measurement": "phytotoxicity rating AMBEL", "setting": "[16]; rate 500 g ai/ha, scale 0-100", "value": 40}, {"measurement": "SOY crop damage rating (0-100)", "setting": "[17]; 63 g al/ha", "value": 10}, {"measurement": "crop damage rating SOY", "setting": "[17]; rate 500 g ai/ha, scale 0-100", "value": 20}, {"measurement": "CASOB phytotoxicity rating (0-100)", "setting": "[18]; 63 g al/ha", "value": 0}, {"measurement": "phytotoxicity rating CASOB", "setting": "[18]; rate 500 g ai/ha, scale 0-100", "value": 70}, {"measurement": "DIGSA phytotoxicity rating (0-100)", "setting": "[19]; 63 g al/ha", "value": 0}, {"measurement": "phytotoxicity rating DIGSA", "setting": "[19]; rate 500 g ai/ha, scale 0-100", "value": 0}, {"measurement": "SORHA phytotoxicity rating (0-100)", "setting": "[20]; 63 g al/ha", "value": 0}, {"measurement": "phytotoxicity rating SORHA", "setting": "[20]; rate 500 g ai/ha, scale 0-100", "value": 10}, {"measurement": "CHEAL phytotoxicity rating (0-100)", "setting": "[21]; 63 g al/ha", "value": 85}, {"measurement": "phytotoxicity rating CHEAL", "setting": "[21]; rate 500 g ai/ha, scale 0-100", "value": 95}, {"measurement": "ECHCG phytotoxicity rating (0-100)", "setting": "[22]; 63 g al/ha", "value": 0}, {"measurement": "phytotoxicity rating ECHCG", "setting": "[22]; rate 500 g ai/ha, scale 0-100", "value": 0}, {"measurement": "ABUTH phytotoxicity rating (0-100)", "setting": "[23]; 63 g al/ha", "value": 80}, {"measurement": "phytotoxicity rating ABUTH", "setting": "[23]; rate 500 g ai/ha, scale 0-100", "value": 100}, {"measurement": "AMARE phytotoxicity rating (0-100)", "setting": "[24]; 63 g al/ha", "value": 90}, {"measurement": "phytotoxicity rating AMARE", "setting": "[24]; rate 500 g ai/ha, scale 0-100", "value": 100}, {"measurement": "IPOHE phytotoxicity rating (0-100)", "setting": "[25]; 63 g al/ha", "value": 90}, {"measurement": "phytotoxicity rating IPOHE", "setting": "[25]; rate 500 g ai/ha, scale 0-100", "value": 75}, {"measurement": "SETVI phytotoxicity rating (0-100)", "setting": "[26]; 63 g al/ha", "value": 10}, {"measurement": "phytotoxicity rating SETVI", "setting": "[26]; rate 500 g ai/ha, scale 0-100", "value": 30}]}
